Results on 24 compounds are retold here after patent EP0723956B1, “Basically substituted benzoylguanidines, process for their preparation, their use as medicaments or diagnostics as well as medicaments containing them” (HOECHST AKTIENGESELLSCHAFT, priority 1995, dated 1996).

≈ marks a conversion by molar mass, not a printed value.

For one data set, the target named is T1, Na^+/H^+-Exchangers von Kaninchenerythrocyten (Oryctolagus cuniculus, UniProt P23791).
T1 construct: den Na^+-Influx in die Erythrocyten via Na^+/H^+-Austausch flammenphotometrisch bestimmen zu können; endogenous in cells; host or cells: erythrocytes in whole blood from the ear arteries of New Zealand White rabbits
T1 sequence (P23791 whole entry): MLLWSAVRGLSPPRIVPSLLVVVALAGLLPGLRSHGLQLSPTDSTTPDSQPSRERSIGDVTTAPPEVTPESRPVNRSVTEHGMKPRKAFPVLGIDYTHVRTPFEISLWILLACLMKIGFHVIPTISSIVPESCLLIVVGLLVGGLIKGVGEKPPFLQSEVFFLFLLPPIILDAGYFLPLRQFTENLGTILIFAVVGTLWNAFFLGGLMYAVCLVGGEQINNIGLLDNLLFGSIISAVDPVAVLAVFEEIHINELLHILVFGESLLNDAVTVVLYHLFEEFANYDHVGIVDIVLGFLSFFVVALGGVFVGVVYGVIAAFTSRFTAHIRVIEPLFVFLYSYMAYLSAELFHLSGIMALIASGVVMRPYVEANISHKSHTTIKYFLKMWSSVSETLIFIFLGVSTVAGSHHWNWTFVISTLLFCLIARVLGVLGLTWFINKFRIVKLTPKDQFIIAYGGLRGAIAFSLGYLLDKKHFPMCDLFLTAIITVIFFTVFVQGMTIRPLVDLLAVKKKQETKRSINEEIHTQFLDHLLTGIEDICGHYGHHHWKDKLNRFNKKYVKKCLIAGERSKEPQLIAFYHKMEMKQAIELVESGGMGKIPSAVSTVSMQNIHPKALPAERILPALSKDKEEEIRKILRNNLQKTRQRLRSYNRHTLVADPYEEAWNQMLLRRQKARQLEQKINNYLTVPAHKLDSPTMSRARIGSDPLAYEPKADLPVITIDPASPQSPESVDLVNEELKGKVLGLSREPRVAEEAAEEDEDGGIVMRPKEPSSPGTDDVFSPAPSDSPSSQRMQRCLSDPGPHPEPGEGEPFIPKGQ
Nature of the data set: Inhibition of the Na+/H+ exchanger of rabbit erythrocytes (amiloride-sensitive Na+ influx, flame photometry). Type of data set: cell-based, Kaninchen. The conditions noted are these: Inhibition des Na^+/H^+-Exchangers; erythrocytes of cholesterol-fed rabbits, hyperosmolar salt-sucrose medium, pH 7,4, 37°C. The source says: Inhibition des Na^+/H^+-Exchangers von Kaninchenerythrocyten
Weiße Neuseeland-Kaninchen (Ivanovas) erhielten eine Standard-Diät mit 2 % Cholesterin für sechs Wochen, um den Na^+/H^+-Austausch zu aktivieren und so den Na^+-Influx in die Erythrocyten via Na^+/H^+-Austausch flammenphotometrisch bestimmen zu können. Das Blut wurde den Ohrarterien entnommen und durch 25 IE Kalium-Heparin ungerinnbar gemacht. Ein Teil jeder Probe wurde zur Doppelbestimmung des Hämatokrits durch Zentrifugieren benutzt. Aliquots von jeweils 100 µl dienten zur Messung des Na^+-Ausgangsgehalts der Erythrocyten.
Um den Amilorid-sensitiven Natrium-lnflux zu bestimmen, wurden 100 µl jeder Blutprobe in jeweils 5 ml eines hyperosmolaren Salz-Sucrose-Mediums (mmol/l: 140 NaCl, 3 KCI, 150 Sucrose, 0,1 Ouabain, 20 Tris-hydroxymethyl-aminomethan) bei pH 7,4 und 37°C inkubiert. Die Erythrocyten wurden danach dreimal mit eiskalter MgCl2-Ouabain-Lösung (mmol/l: 112 MgCl2, 0,1 Ouabain) gewaschen und in 2,0 ml destilliertem Wasser hämolysiert. Der intrazelluläre Natriumgehalt wurde flammenphotometrisch bestimmt.
Der Na^+-Nettoinflux wurde aus der Differenz zwischen Natrium-Ausgangswerten und dem Natriumgehalt der Erythrocyten nach Inkubation errechnet. Der Amiloridhemmbare Natrium-lnflux ergab sich aus der Differenz des Natriumgehalts der Erythrocyten nach Inkubation mit und ohne Amilorid 3 x 10-4 mol/l. Auf diese Weise wurde auch bei den erfindungsgemäßen Verbindungen verfahren.
For “4-[4-(N-t-Butylimido-N'-t-butyl)sulfamoyl]-3-trifluormethyl-benzoylguanidin [Beispiel 2]”, the IC50 was 320 nM.
Take `NC(N)=NC(=O)c1ccc(Oc2ccc(S(N)(=O)=O)cc2)c(C(F)(F)F)c1` [Beispiel 1, 4-(4-Aminosulfonyl)phenoxy-3-trifluormethyl-benzoylguanidin]: the 50% inhibitory concentration (IC50) was found to be 800 nM.
Same read-out and setting: the same measure for `CN(C)CCN(C)S(=O)(=O)c1ccc(Oc2ccc(C(=O)N=C(N)N)cc2C(F)(F)F)cc1` [Beispiel 3, 4-[4-N-(Dimethylaminoethyl)-methylsulfamoyl]phenoxy-3-trifluormethylbenzoylguanidin]: 50 nM; for `CN1CCN(S(=O)(=O)c2ccc(Oc3ccc(C(=O)N=C(N)N)cc3C(F)(F)F)cc2)CC1` [Beispiel 4, 4-[4-(4-Methylpiperazinosulfonyl)phenoxy]-3-trifluormethylbenzoylguanidin]: 82 nM.
Same read-out and setting: the same measure for `NC(N)=NC(=O)c1ccc(Oc2ccc(S(=O)(=O)NCCN3CCCC3)cc2)c(C(F)(F)F)c1` [Beispiel 5, 4-[4-(2-Pyrolidinethylaminosulfonyl)phenoxy]-3-trifluormethylbenzoylguanidin]: 300 nM; for `NC(N)=NC(=O)c1ccc(Oc2ccc(S(=O)(=O)NCCN3CCCCC3)cc2)c(C(F)(F)F)c1` [Beispiel 6, 4-[4-(2-Piperidinethylaminosulfonyl)phenoxy]-3-trifluormethylbenzoylguanidin]: 100 nM; for `CN(C)CCCNS(=O)(=O)c1ccc(Oc2ccc(C(=O)N=C(N)N)cc2C(F)(F)F)cc1` [Beispiel 7, 4-[4-(N-Dimethylamino-n-propyl)sulfamoyl]phenoxy-3-trifluormethylbenzoylguanidin]: 60 nM.
On the same count and under the same terms, the same measure for `CN(C)CCNS(=O)(=O)c1ccc(Oc2ccc(C(=O)N=C(N)N)cc2C(F)(F)F)cc1` [Beispiel 8, 4-[4-(N-Dimethylaminoethyl)sulfamoyl]phenoxy-3-trifluormethylbenzoylguanidin]: 5 nM; for `N=S(N)(=O)c1ccc(Oc2ccc(C(=O)N=C(N)N)cc2C(F)(F)F)cc1` (stereo not shown) [Beispiel 9, 4-(4-lmidamidosulfonyl)phenoxy-3-trifluormethyl-benzoylguanidin]: 100 nM; for `CN(C)CCc1ccc(Oc2ccc(C(=O)N=C(N)N)cc2S(C)(=O)=O)cc1` [Beispiel 14, 3-Methylsulfonyl-[4-(2-dimethylaminoethyl)phenoxy]benzoyl-guanidin]: 50 nM.
On to `CN(C)CCSCc1ccc(Oc2ccc(C(=O)N=C(N)N)cc2S(C)(=O)=O)cc1` [Beispiel 15, 4-[4-(2-Dimethylaminoethyl)thiomethyl-phenoxy]-3-methylsulfonylbenzoyl-guanidin], for which the IC50 was found to be 10 nM.
On the same count and under the same terms, with `CN(C)CCSc1ccc(Oc2ccc(C(=O)N=C(N)N)cc2S(C)(=O)=O)cc1` [Beispiel 16, 4-[4-(2-Dimethylaminoethylthio)phenoxy]-3-methylsulfonylbenzoylguanidin] the figure was 160 nM.
Same read-out and setting: with `CN(C)CCS(=O)(=O)c1ccc(Oc2ccc(C(=O)N=C(N)N)cc2S(C)(=O)=O)cc1` [Beispiel 17, 4-[4-(2-Dimethylaminoethylsulfonyl)phenoxy]-3-methylsulfonylbenzoylguanidin] the figure was 1000 nM; with `CS(=O)(=O)c1cc(C(=O)N=C(N)N)ccc1Oc1ccc(C(=O)N=C(N)N)cc1` [Beispiel 18, 4-[(4-Guanidinocarbonyl)phenoxy]-3-methylsulfonylbenzoylguanidin], 200 nM; with `CN(C)CCSCc1ccc(Oc2ccc(C(=O)N=C(N)N)cc2C(F)(F)F)cc1` [Beispiel 19, 4-[4-(2-Dimethylaminoethyl)thiomethyl-phenoxy]-3-trifluormethylbenzoylguanidin], 8 nM.
Same read-out and setting: with `CN(C)CCSc1ccc(Oc2ccc(C(=O)N=C(N)N)cc2C(F)(F)F)cc1` [Beispiel 20, 4-[4-(2-Dimethylaminoethylthio)phenoxy]-3-trifluormethylbenzoylguanidin] the figure was 40 nM; with `CN(C)CCc1ccc(Oc2ccc(C(=O)N=C(N)N)cc2C(F)(F)F)cc1` [Beispiel 21, 3-Trifluormethyl-4-[4-(2-dimethylaminoethyl)phenoxy]benzoyl-guanidin], 14 nM.
Turning to `CN=C(NC)SCC(=O)c1ccc(Oc2ccc(C(=O)N=C(N)N)cc2S(C)(=O)=O)cc1` [Beispiel 28, 4-[4-(N,N'-Dimethyl-S-isothiuronyl-acetyl)phenoxy]-3-methylsulfonylbenzoylguanidin], the IC50 stood at 120 nM.
Same read-out and setting: with `CS(=O)(=O)c1cc(C(=O)N=C(N)N)ccc1Oc1ccc(C(O)Cn2ccnc2)cc1` (stereo not shown) [Beispiel 32, 4-[4-(2-N-lmidazolyl-1-hydroxyethyl)phenoxy]-3-methylsulfonylbenzoylguanidin] the figure was 440 nM; with `CS(=O)(=O)c1cc(C(=O)N=C(N)N)ccc1Oc1ccc(S(N)(=O)=O)cc1` [Beispiel 33, 3-Methylsulfonyl-4-(4-sulfamoylphenoxy)benzoylguanidin], 200 nM.
The same measure, in the same setting: the same measure for `CN(C)CCS(=O)(=O)Cc1ccc(Oc2ccc(C(=O)N=C(N)N)cc2S(C)(=O)=O)cc1` [Beispiel 46, 4-[4-(2-Dimethylaminoethyl)sulfonylmethyl-phenoxy]-3-methylsulfonylbenzoyl-guanidin]: 90 nM.
In the case of `CN(C)CCS(=O)(=O)Cc1ccc(Oc2ccc(C(=O)N=C(N)N)cc2C(F)(F)F)cc1` [Beispiel 47, 4-[4-(2-Dimethylaminoethyl)sulfonylmethyl-phenoxy]-3-trifluormethylbenzoyl-guanidin], the IC50 was found to be 70 nM.

Test system in the next data set: not listed separately
Nature of the data set: Water solubility. Type of data set: physicochemical. The following applies: Dihydrochlorid, pH = 5.3, read-out: Wasserlöslichkeit.
As for `CN(C)CCc1ccc(Oc2ccc(C(=O)N=C(N)N)cc2C(F)(F)F)cc1` [Beispiel 21, 3-Trifluormethyl-4-[4-(2-dimethylaminoethyl)phenoxy]benzoyl-guanidin], the solubility amounted to 49 mg/mL (≈ 124 mM).

Another data set has as its system Rattenherzen.
Experiment: not given
The following applies: isolated rat hearts; Eur. Heart J. 9 (suppl.1): 167 (1988); cited from earlier work.
Consider `NC(N)=NC(=O)c1nc(Cl)c(N)nc1N` [Amilorid], for which the “künstlich ausgelöstes Kammerflimmern” value is reported as “völlig unterdrückt”.
For the compound `CCN(c1nc(N)c(C(=O)N=C(N)N)nc1Cl)C(C)C` [Ethylisopropylamilorid], the “künstlich ausgelöstes Kammerflimmern” value is reported as “Noch potenter als Amilorid”.

As a reminder, the IC50 is the concentration needed to halve the response being measured.
